Assay results as given in patent publication US20260013501A1, “HERBICIDAL DERIVATIVES” (SYNGENTA CROP PROTECTION AG, priority 2022, published 2026).

How the values were obtained:
Format in all cases: in vivo
Details in all cases: evaluated after 13 days
Zea mays (ZEAMX) [1] = experiment: Pre-emergence Test (Table B1), ZEAMX
[2] = tested on: Echinochloa crus-galli (ECHCG); experiment: Post-emergence Test (Table B2), ECHCG; parameters: key: 5-point damage scale: 5=81-100%, 4=61-80%, 3=41-60%, 2=21-40%, 1=0-20%
Experimental: (§1) Seeds of a variety of test species are sown in standard soil in pots (Ipomoea hederacea (IPOHE), Zea mays (ZEAMX), Echinochloa crus-galli (ECHCG), Amaranthus palmeri (AMAPA), (Amaranthus retoflexus (AMARE), and (Setaria faberi (SETFA)). After 8 days cultivation under controlled conditions in a glasshouse (at 24° C./16° C., day/night; 14 hours light; 65% humidity), the plants are sprayed with an aqueous spray solution derived from the formulation of the technical active ingredient in acetone/water (50:50) solution containing 0.5% Tween 20 (polyoxyethelyene sorbitan monolaurate, CAS RN 9005-64-5). Rate of application is shown in g/ha in the tables below. The test plants are then grown in a glasshouse under controlled conditions in a glasshouse (at 24° C./16° C., day/night; 14 hours light; 65% humidity) and watered twice daily. After 13 days the test is evaluated for the percentage damage caused to the plant. The biological activities are shown in the following table on a five-point scale (5=81-100%; 4=61-80%; 3=41-60%; 2=21-40%; 1=0-20%; -=not tested).

[3] = tested on: Echinochloa crus-galli (ECHCG); experiment: Pre-emergence Test (Table B1), ECHCG
[4] = tested on: Amaranthus palmeri (AMAPA); experiment: Pre-emergence Test (Table B1), AMAPA
[5] = tested on: Amaranthus retoflexus (AMARE); experiment: Pre-emergence Test (Table B1), AMARE
[6] = tested on: Amaranthus palmeri (AMAPA); experiment: Post-emergence Test (Table B2), AMAPA; parameters: key: five-point scale: 5=81-100%, 4=61-80%, 3=41-60%, 2=21-40%, 1=0-20% damage
Experimental: as §1

[7] = tested on: Amaranthus retoflexus (AMARE); experiment: Post-emergence Test (Table B2), AMARE; parameters: key: five-point scale: 5=81-100%, 4=61-80%, 3=41-60%, 2=21-40%, 1=0-20% damage
Experimental: as §1

[8] = tested on: Ipomoea hederacea (IPOHE); experiment: Pre-emergence Test (Table B1), IPOHE
Zea mays (ZEAMX) [9] = experiment: Post-emergence Test (Table B2), ZEAMX; parameters: key: 5-point damage scale: 5=81-100%, 4=61-80%, 3=41-60%, 2=21-40%, 1=0-20%
Experimental: as §1

CCn1c(Cc2cc(=O)[nH]cn2)cc(=O)c(C(=O)O)c1-c1ccc(Cl)c(Cl)c1 [Compound 45, 2-(3,4-dichlorophenyl)-1-ethyl-4-oxo-6-[(6-oxo-1H-pyrimidin-4-yl)methyl]pyridine-3-carboxylic acid]
0: Pre-emergence Test, percentage damage caused to the plant (five-point scale), ZEAMX (Zea mays (ZEAMX) [1]; Rate 250 g/Ha) | percentage damage caused to the plant, ECHCG ([2]; rate 250 g/Ha) | Pre-emergence Test, percentage damage caused to the plant (five-point scale), ECHCG ([3]; Rate 250 g/Ha) | Pre-emergence Test, percentage damage caused to the plant (five-point scale), AMAPA ([4]; Rate 250 g/Ha) | Pre-emergence Test, percentage damage caused to the plant (five-point scale), AMARE ([5]; Rate 250 g/Ha)

CCn1c(Cc2nc(OC)cc(OC)n2)cc(=O)c(C(=O)O)c1-c1ccc(Cl)c(Cl)c1 [Compound 126, 2-(3,4-dichlorophenyl)-6-[(4,6-dimethoxypyrimidin-2-yl)methyl]-1-ethyl-4-oxo-pyridine-3-carboxylic acid]
0: percentage damage caused to the plant, AMAPA ([6]; rate 250 g/Ha) | percentage damage caused to the plant, AMARE ([7]; rate 250 g/Ha) | Pre-emergence Test, percentage damage caused to the plant (five-point scale), ZEAMX (Zea mays (ZEAMX) [1]; Rate 250 g/Ha)

CCn1c(Cc2ccc(S(C)(=O)=O)cc2)cc(=O)c(C(=O)O)c1-c1ccc(Cl)c(Cl)c1 [Compound 72, 2-(3,4-dichlorophenyl)-1-ethyl-6-[(4-methylsulfonylphenyl)methyl]-4-oxo-pyridine-3-carboxylic acid]
0: Pre-emergence Test, percentage damage caused to the plant (five-point scale), IPOHE ([8]; Rate 250 g/Ha) | percentage damage caused to the plant, ECHCG ([2]; rate 250 g/Ha) | Pre-emergence Test, percentage damage caused to the plant (five-point scale), ECHCG ([3]; Rate 250 g/Ha) | percentage damage caused to the plant, ZEAMX (Zea mays (ZEAMX) [9]; rate 250 g/Ha)

CCn1c(Cc2ccc(OC(F)(F)F)cc2)cc(=O)c(C(=O)O)c1-c1ccc(Cl)c(Cl)c1 [Compound 26, 2-(3,4-dichlorophenyl)-1-ethyl-4-oxo-6-[[4-(trifluoromethoxy)phe-nyl]methyl]pyridine-3-carboxylic acid]
0: percentage damage caused to the plant, ECHCG ([2]; rate 1000 g/Ha) | percentage damage caused to the plant, ZEAMX (Zea mays (ZEAMX) [9]; rate 1000 g/Ha)

CCn1c(Cc2cccc(C(C)=O)n2)cc(=O)c(C(=O)O)c1-c1ccc(Cl)c(Cl)c1 [Compound 116, 6-[(6-acetyl-2-pyridyl)methyl]-2-(3,4-dichlorophenyl)-1-ethyl-4-oxo-pyridine-3-carboxylic acid]
0: percentage damage caused to the plant, AMAPA ([6]; rate 250 g/Ha) | Pre-emergence Test, percentage damage caused to the plant (five-point scale), IPOHE ([8]; Rate 250 g/Ha)

CCn1c(Cc2ccc(F)c(Cl)c2)cc(=O)c(C(=O)O)c1-c1ccc(Cl)c(Cl)c1 [Compound 75, 6-[(3-chloro-4-fluoro-phenyl)methyl]-2-(3,4-dichlorophenyl)-1-ethyl-4-oxo-pyridine-3-carboxylic acid]
0: percentage damage caused to the plant, AMAPA ([6]; rate 1000 g/Ha) | percentage damage caused to the plant, AMARE ([7]; rate 1000 g/Ha) | Pre-emergence Test, percentage damage caused to the plant (five-point scale), ZEAMX (Zea mays (ZEAMX) [1]; Rate 1000 g/Ha) | percentage damage caused to the plant, ZEAMX (Zea mays (ZEAMX) [9]; rate 1000 g/Ha)

CCn1c(Cc2ccc(C(F)(F)F)cc2)cc(=O)c(C(=O)O)c1-c1ccc(Cl)c(Cl)c1 [Compound 6, 2-(3,4-dichlorophenyl)-1-ethyl-4-oxo-6-[[4-(trifluoromethyl)phenyl]methyl]pyridine-3-carboxylic acid]
0: Pre-emergence Test, percentage damage caused to the plant (five-point scale), ZEAMX (Zea mays (ZEAMX) [1]; Rate 1000 g/Ha) | Pre-emergence Test, percentage damage caused to the plant (five-point scale), IPOHE ([8]; Rate 1000 g/Ha) | Pre-emergence Test, percentage damage caused to the plant (five-point scale), ECHCG ([3]; Rate 1000 g/Ha)

CCn1c(Cc2nc(C(=O)OC)co2)cc(=O)c(C(=O)O)c1-c1ccc(Cl)c(Cl)c1 [Compound 148, 2-(3,4-dichlorophenyl)-1-ethyl-6-[(4-methoxycarbonyloxazol-2-yl)methyl]-4-oxo-pyridine-3-carboxylic acid]
0: percentage damage caused to the plant, AMAPA ([6]; rate 250 g/Ha) | Pre-emergence Test, percentage damage caused to the plant (five-point scale), ZEAMX (Zea mays (ZEAMX) [1]; Rate 250 g/Ha) | Pre-emergence Test, percentage damage caused to the plant (five-point scale), IPOHE ([8]; Rate 250 g/Ha) | Pre-emergence Test, percentage damage caused to the plant (five-point scale), ECHCG ([3]; Rate 250 g/Ha) | percentage damage caused to the plant, ZEAMX (Zea mays (ZEAMX) [9]; rate 250 g/Ha)

CCn1c(Cc2cnc(C3CC3)nc2)cc(=O)c(C(=O)O)c1-c1ccc(Cl)c(Cl)c1 [Compound 151, 6-[(2-cyclopropylpyrimidin-5-yl)methyl]-2-(3,4-dichlorophenyl)-1-ethyl-4-oxo-pyridine-3-carboxylic acid]
0: percentage damage caused to the plant, AMAPA ([6]; rate 250 g/Ha) | Pre-emergence Test, percentage damage caused to the plant (five-point scale), ZEAMX (Zea mays (ZEAMX) [1]; Rate 250 g/Ha) | Pre-emergence Test, percentage damage caused to the plant (five-point scale), IPOHE ([8]; Rate 250 g/Ha) | Pre-emergence Test, percentage damage caused to the plant (five-point scale), ECHCG ([3]; Rate 250 g/Ha) | percentage damage caused to the plant, ZEAMX (Zea mays (ZEAMX) [9]; rate 250 g/Ha)

CCn1c(Cc2ccc(OC)c(Cl)c2)cc(=O)c(C(=O)O)c1-c1ccc(Cl)c(Cl)c1 [Compound 86, 6-[(3-chloro-4-methoxy-phenyl)methyl]-2-(3,4-dichlorophenyl)-1-ethyl-4-oxo-pyridine-3-carboxylic acid]
0: percentage damage caused to the plant, AMAPA ([6]; rate 250 g/Ha) | percentage damage caused to the plant, AMARE ([7]; rate 250 g/Ha) | Pre-emergence Test, percentage damage caused to the plant (five-point scale), ZEAMX (Zea mays (ZEAMX) [1]; Rate 250 g/Ha) | Pre-emergence Test, percentage damage caused to the plant (five-point scale), IPOHE ([8]; Rate 250 g/Ha) | Pre-emergence Test, percentage damage caused to the plant (five-point scale), AMAPA ([4]; Rate 250 g/Ha)

CCn1c(Cc2cc(OC)ccc2F)cc(=O)c(C(=O)O)c1-c1ccc(Cl)c(Cl)c1 [Compound 90, 2-(3,4-dichlorophenyl)-1-ethyl-6-[(2-fluoro-5-methoxy-phenyl)methyl]-4-oxo-pyridine-3-carboxylic acid]
0: Pre-emergence Test, percentage damage caused to the plant (five-point scale), ZEAMX (Zea mays (ZEAMX) [1]; Rate 1000 g/Ha) | percentage damage caused to the plant, ECHCG ([2]; rate 1000 g/Ha) | Pre-emergence Test, percentage damage caused to the plant (five-point scale), AMAPA ([4]; Rate 1000 g/Ha) | Pre-emergence Test, percentage damage caused to the plant (five-point scale), AMARE ([5]; Rate 1000 g/Ha) | percentage damage caused to the plant, ZEAMX (Zea mays (ZEAMX) [9]; rate 1000 g/Ha)

CCn1c(Cc2ccc(C#N)c(F)n2)cc(=O)c(C(=O)O)c1-c1ccc(Cl)c(Cl)c1 [Compound 112, 6-[(5-cyano-6-fluoro-2-pyridyl)methyl]-2-(3,4-dichlorophenyl)-1-ethyl-4-oxo-pyridine-3-carboxylic acid]
0: Pre-emergence Test, percentage damage caused to the plant (five-point scale), ZEAMX (Zea mays (ZEAMX) [1]; Rate 62.5 g/Ha) | Pre-emergence Test, percentage damage caused to the plant (five-point scale), IPOHE ([8]; Rate 62.5 g/Ha) | Pre-emergence Test, percentage damage caused to the plant (five-point scale), ECHCG ([3]; Rate 62.5 g/Ha) | Pre-emergence Test, percentage damage caused to the plant (five-point scale), AMAPA ([4]; Rate 62.5 g/Ha) | Pre-emergence Test, percentage damage caused to the plant (five-point scale), AMARE ([5]; Rate 62.5 g/Ha)

CCn1c(Cc2ccc(OC)nc2)cc(=O)c(C(=O)O)c1-c1ccc(Cl)c(Cl)c1 [Compound 40, 2-(3,4-dichlorophenyl)-1-ethyl-6-[(6-methoxy-3-pyridyl)methyl]-4-oxo-pyridine-3-carboxylic acid]
0: Pre-emergence Test, percentage damage caused to the plant (five-point scale), ZEAMX (Zea mays (ZEAMX) [1]; Rate 250 g/Ha) | Pre-emergence Test, percentage damage caused to the plant (five-point scale), IPOHE ([8]; Rate 250 g/Ha) | percentage damage caused to the plant, ECHCG ([2]; rate 250 g/Ha) | Pre-emergence Test, percentage damage caused to the plant (five-point scale), ECHCG ([3]; Rate 250 g/Ha)

CCn1c(Cc2ccc(C)c(C#N)n2)cc(=O)c(C(=O)O)c1-c1ccc(Cl)c(Cl)c1 [Compound 113, 6-[(6-cyano-5-methyl-2-pyridyl)methyl]-2-(3,4-dichlorophenyl)-1-ethyl-4-oxo-pyridine-3-carboxylic acid]
0: percentage damage caused to the plant, AMAPA ([6]; rate 250 g/Ha) | percentage damage caused to the plant, AMARE ([7]; rate 250 g/Ha) | Pre-emergence Test, percentage damage caused to the plant (five-point scale), ZEAMX (Zea mays (ZEAMX) [1]; Rate 250 g/Ha) | Pre-emergence Test, percentage damage caused to the plant (five-point scale), AMAPA ([4]; Rate 250 g/Ha) | Pre-emergence Test, percentage damage caused to the plant (five-point scale), AMARE ([5]; Rate 250 g/Ha)

CCn1c(Cc2ccnc(C(F)(F)F)c2)cc(=O)c(C(=O)O)c1-c1ccc(Cl)c(Cl)c1 [Compound 21, 2-(3,4-dichlorophenyl)-1-ethyl-4-oxo-6-[[2-(trifluoromethyl)-4-pyridyl]methyl]pyridine-3-carboxylic acid]
0: percentage damage caused to the plant, AMAPA ([6]; rate 250 g/Ha) | percentage damage caused to the plant, AMARE ([7]; rate 250 g/Ha)

CCn1c(Cc2ccc(C(=O)OC)cn2)cc(=O)c(C(=O)O)c1-c1ccc(Cl)c(Cl)c1 [Compound 46, 2-(3,4-dichlorophenyl)-1-ethyl-6-[(5-methoxycarbonyl-2-pyridyl)methyl]-4-oxo-pyridine-3-carboxylic acid]
0: Pre-emergence Test, percentage damage caused to the plant (five-point scale), ZEAMX (Zea mays (ZEAMX) [1]; Rate 250 g/Ha) | percentage damage caused to the plant, ECHCG ([2]; rate 250 g/Ha)

CCn1c(Cc2ccccc2)cc(=O)c(C(=O)O)c1-c1ccc(Cl)c(Cl)c1 [Compound 3, 6-benzyl-2-(3,4-dichlorophenyl)-1-ethyl-4-oxo-pyridine-3-carboxylic acid]
0: percentage damage caused to the plant, AMARE ([7]; rate 1000 g/Ha) | Pre-emergence Test, percentage damage caused to the plant (five-point scale), ZEAMX (Zea mays (ZEAMX) [1]; Rate 1000 g/Ha) | Pre-emergence Test, percentage damage caused to the plant (five-point scale), IPOHE ([8]; Rate 1000 g/Ha) | Pre-emergence Test, percentage damage caused to the plant (five-point scale), ECHCG ([3]; Rate 1000 g/Ha)

CCn1c(Cc2cncc(Cl)n2)cc(=O)c(C(=O)O)c1-c1ccc(Cl)c(Cl)c1 [Compound 43, 6-[(6-chloropyrazin-2-yl)methyl]-2-(3,4-dichlorophenyl)-1-ethyl-4-oxo-pyridine-3-carboxylic acid]
0: percentage damage caused to the plant, AMAPA ([6]; rate 250 g/Ha) | Pre-emergence Test, percentage damage caused to the plant (five-point scale), ZEAMX (Zea mays (ZEAMX) [1]; Rate 250 g/Ha) | Pre-emergence Test, percentage damage caused to the plant (five-point scale), AMAPA ([4]; Rate 250 g/Ha)
